Experimental data as given in ChEMBL document CHEMBL1141229, “On the use of nonfluorescent dye labeled ligands in FRET-based receptor binding studies” (J Med Chem, 2005).

Biological target: Muscarinic acetylcholine receptor M1 (Homo sapiens, UniProt P11229)
Assay: Displacement of [3H]QNB from EGFP(delta-17)human M1 receptor expressed in HEK cells
Type: cell-based
Settings: hek293

Muscarinic acetylcholine receptor M1, sequence (P11229 whole entry, looked up): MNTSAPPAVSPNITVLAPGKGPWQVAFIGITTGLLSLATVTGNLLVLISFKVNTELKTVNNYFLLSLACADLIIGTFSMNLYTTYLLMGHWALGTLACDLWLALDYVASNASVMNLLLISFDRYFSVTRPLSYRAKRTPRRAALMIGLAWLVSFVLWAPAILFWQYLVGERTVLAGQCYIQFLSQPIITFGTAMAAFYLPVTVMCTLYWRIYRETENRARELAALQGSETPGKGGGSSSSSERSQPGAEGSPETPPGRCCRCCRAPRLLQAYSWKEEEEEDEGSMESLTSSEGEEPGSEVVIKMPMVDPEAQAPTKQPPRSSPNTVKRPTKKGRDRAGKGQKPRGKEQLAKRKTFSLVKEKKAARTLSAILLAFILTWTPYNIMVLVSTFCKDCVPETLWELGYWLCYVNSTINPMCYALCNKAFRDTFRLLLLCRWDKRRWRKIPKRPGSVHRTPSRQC

| Ki [nM] | Compound |
| --- | --- |
| > 10000 | CCN1/C(=C/C=C/c2ccc3cc(NC(=O)CCCCC(=O)O)ccc3[n+]2CC)C=Cc2ccccc21 |
| 69.7 | O=C(CCCCCNC(=O)CCc1ccc2n1[B-](F)(F)[N+]1=C(c3cccs3)C=CC1=C2)NCCCCN1CCN(CC(=O)N2c3ccccc3C(=O)Nc3cccnc32)CC1 |
| 53.5 | CCN(CC)c1ccc2c(-c3ccc(S(=O)(=O)NCCCCCC(=O)NCCOCCOCCN4CCN(CC(=O)N5c6ccccc6C(=O)Nc6cccnc65)CC4)cc3S(=O)(=O)[O-])c3ccc(=[N+](CC)CC)cc-3oc2c1 |
| 29.4 | CCN1/C(=C/C=C/c2ccc3cc(NC(=O)CCCCC(=O)NCCOCCOCCN4CCN(CC(=O)N5c6ccccc6C(=O)Nc6cccnc65)CC4)ccc3[n+]2CC)C=Cc2ccccc21 |
| > 10000 | CCN(CC)c1ccc([C+](c2ccc(N(CC)CC)cc2)c2ccc(S(=O)(=O)NCCCCCC(=O)O)cc2S(=O)(=O)[O-])cc1 |
| 189 | CCN(CC)c1ccc([C+](c2ccc(N(CC)CC)cc2)c2ccc(S(=O)(=O)NCCCCCC(=O)NCCOCCOCCN3CCN(CC(=O)N4c5ccccc5C(=O)Nc5cccnc54)CC3)cc2S(=O)(=O)[O-])cc1 |
